The results in this text go back to ChEMBL document CHEMBL3739323, “Design, synthesis, and biological evaluation of novel quinazolinyl-diaryl urea derivatives as potential anticancer agents” (Eur J Med Chem, 2016).

One assay has as its system HepG2. Put plainly: Antiproliferative activity against human HepG2 cells by MTT assay. In kind it is functional, cell-based. In general terms: Tetrazolium dyes change colour on reduction, which living cells bring about.
The nature of assay [1]: Antiproliferative activity against human MGC803 cells by MTT assay. The note with it: MGC-803. The assay is classed as functional, cell-based.
Assay [2] concerns A549. Put plainly: Antiproliferative activity against human A549 cells by MTT assay. In kind it is functional, cell-based.
In assay [3] the test system is A549. As to the kind of experiment: Induction of apoptosis in human A549 cells assessed as viable cells at 10 uM after 6 hrs by Annexin-V-FITC/Propidium iodide staining based flow cytometric analysis (reference value: 95.48 +/- 2.03%). The note with it: A549, 6 h, read-out: Activity. In kind it is functional.
Assay [4] relates to A549. As to the kind of experiment: Induction of apoptosis in human A549 cells assessed as early apoptotic cells at 10 uM after 6 hrs by Annexin-V-FITC/Propidium iodide staining based flow cytometric analysis (reference value: 3.83 +/- 0.49%). The assay is classed as functional. (A flow cytometer gives signals particle by particle.)
Assay [5] deals with A549. As to the kind of experiment: Induction of apoptosis in human A549 cells assessed as late apoptotic cells at 10 uM after 6 hrs by Annexin-V-FITC/Propidium iodide staining based flow cytometric analysis (reference value: 0.41 +/- 0.19%). In kind it is functional.
Assay [6] has as its system A549. Put plainly: Induction of apoptosis in human A549 cells assessed as necrotic cells at 10 uM after 6 hrs by Annexin-V-FITC/Propidium iodide staining based flow cytometric analysis (reference value: 0.28 +/- 0.09%). The assay is classed as functional.
In assay [7] the test system is A549. As to the kind of experiment: Induction of apoptosis in human A549 cells assessed as viable cells at 10 uM after 48 hrs by Annexin-V-FITC/Propidium iodide staining based flow cytometric analysis (reference value: 92.46 +/- 4.23%). The assay is classed as functional. The note with it: A549, 48 h, read-out: Activity.
Assay [8] deals with A549. As to the kind of experiment: Cell cycle arrest in human A549 cells assessed as accumulation at S phase at 10 uM by propidium iodide staining based flow cytometric analysis (reference value: 23.41 +/- 2.19%). In kind it is functional.
Assay [9] deals with A549. As to the kind of experiment: Induction of apoptosis in human A549 cells assessed as early apoptotic cells at 10 uM after 48 hrs by Annexin-V/Propidium iodide dual staining based flow cytometric analysis (reference value: 3.53 +/- 0.89%). In kind it is functional.
Assay [10] deals with A549. As to the kind of experiment: Induction of apoptosis in human A549 cells assessed as late apoptotic cells at 10 uM after 48 hrs by Annexin-V/Propidium iodide dual staining based flow cytometric analysis (reference value: 1.44 +/- 0.43%). The assay is classed as functional.
Assay [11] concerns A549. As to the kind of experiment: Induction of apoptosis in human A549 cells assessed as necrotic cells at 10 uM after 48 hrs by Annexin-V/Propidium iodide dual staining based flow cytometric analysis (reference value: 2.57 +/- 0.39%). The assay is classed as functional.
Assay [12] deals with A549. As to the kind of experiment: Cell cycle arrest in human A549 cells assessed as accumulation at G0/G1 phase at 10 uM by propidium iodide staining based flow cytometric analysis (reference value: 63.82 +/- 2.66%). The assay is classed as functional.
Assay [13] concerns A549. As to the kind of experiment: Cell cycle arrest in human A549 cells assessed as accumulation at G2/M phase at 10 uM by propidium iodide staining based flow cytometric analysis (reference value: 12.77 +/- 1.55%). The assay is classed as functional.
Assay [14] relates to A549. As to the kind of experiment: Induction of apoptosis in human A549 cells assessed as increase in ROS production at 10 uM after 12 hrs by DCF staining based luminescence spectrometric analysis. In kind it is functional, cell-based.
The test system of assay [15] is A549. Put plainly: Induction of apoptosis in human A549 cells assessed as upregulation of caspase-3 expression at 10 uM after 48 hrs by Western blot analysis. The assay is classed as functional, cell-based.
The subject of assay [16] is A549. As to the kind of experiment: Induction of apoptosis in human A549 cells assessed as upregulation of caspase-8 expression at 10 uM after 48 hrs by Western blot analysis. In kind it is functional, cell-based.
For assay [17], the system named is A549. Put plainly: Induction of apoptosis in human A549 cells assessed as upregulation of Bax expression at 10 uM after 48 hrs by Western blot analysis. The assay is classed as functional, cell-based. In general terms: In western blotting, separated proteins are transferred to a membrane and probed.
In assay [18] the test system is A549. As to the kind of experiment: Induction of apoptosis in human A549 cells assessed as downregulation of Bcl-2 expression at 10 uM after 48 hrs by Western blot analysis. In kind it is functional, cell-based.
Assay [19] concerns the target RAF proto-oncogene serine/threonine-protein kinase (Homo sapiens) (UniProt P04049). The following applies: A549, 10 uM.
Description: Inhibition of C-Raf in human A549 cells at 10 uM after 48 hrs by Western blot analysis

pIC50: −log10 of the molar value. Activity calls are given as the source filed them. The calls are words filed in the database; no cut-off is given here. Some results are limits rather than exact numbers.

Chain of RAF proto-oncogene serine/threonine-protein kinase (Homo sapiens) (P04049 whole entry): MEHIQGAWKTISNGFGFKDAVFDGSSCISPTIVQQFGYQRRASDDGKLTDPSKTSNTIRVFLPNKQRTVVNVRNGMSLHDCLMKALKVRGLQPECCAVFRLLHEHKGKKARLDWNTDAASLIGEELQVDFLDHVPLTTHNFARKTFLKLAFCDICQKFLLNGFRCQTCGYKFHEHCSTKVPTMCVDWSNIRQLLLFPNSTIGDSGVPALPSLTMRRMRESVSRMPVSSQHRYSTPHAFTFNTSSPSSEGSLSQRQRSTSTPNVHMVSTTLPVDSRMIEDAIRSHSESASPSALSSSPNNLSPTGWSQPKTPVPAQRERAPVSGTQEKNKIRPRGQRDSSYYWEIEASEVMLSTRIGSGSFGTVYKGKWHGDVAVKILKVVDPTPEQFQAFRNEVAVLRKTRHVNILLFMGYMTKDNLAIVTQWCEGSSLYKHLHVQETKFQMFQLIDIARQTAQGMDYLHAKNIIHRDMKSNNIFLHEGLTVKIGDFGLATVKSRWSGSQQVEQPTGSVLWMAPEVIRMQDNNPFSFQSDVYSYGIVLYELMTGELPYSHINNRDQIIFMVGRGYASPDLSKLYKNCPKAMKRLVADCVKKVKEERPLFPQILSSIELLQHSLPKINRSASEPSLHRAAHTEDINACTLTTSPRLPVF

For orientation: pIC50 means the IC50 on a negative log10 scale, so that one unit is a factor of ten. Turning to `COc1cc2ncnc(NCc3cccc(NC(=O)Nc4ccccc4C)c3)c2cc1OC`, the values for the pIC50 (in the assay with HepG2; in assay [1]; with A549 [2]) were < 4.30, < 4.30 and 4.67, respectively.
For `COc1cc2ncnc(NCc3cccc(NC(=O)Nc4ccccc4Cl)c3)c2cc1OC`, the pIC50 in the assay on HepG2 is 4.59; in [1], 4.52; in the assay on A549 [2] it was 4.82.
Taken in the same sequence, the figures for `O=C(Nc1cccc(CNc2ncnc3ccccc23)c1)Nc1ccccc1Cl` were < 4.30, < 4.30 and 4.75.
The matching figures for `O=C(Nc1ccccc1)Nc1cccc(CNc2ncnc3ccccc23)c1`: < 4.30, 4.88 and 4.74.
The matching figures for `COc1cc2ncnc(NCc3cccc(NC(=O)Nc4ccc(F)cc4)c3)c2cc1OC`: 4.44, 4.38 and 4.77.
On to `O=C(Nc1cccc(Cl)c1)Nc1cccc(CNc2ncnc3ccccc23)c1`, for which the pIC50 in the assay with HepG2 is < 4.30; in [1], 4.72; with A549 [2] it was < 4.30.
Regarding `COc1cc2ncnc(NCc3cccc(NC(=O)Nc4cccc(C)c4)c3)c2cc1OC`, the negative-log IC50 (pIC50) is 4.67 in the assay on HepG2, 4.35 in [1] and 4.57 in the assay with A549 [2].
Taken in the same sequence, the figures for `O=C(Nc1ccc([N+](=O)[O-])cc1)Nc1cccc(CNc2ncnc3ccccc23)c1` were 4.61, 5.03 and < 4.30.
For `COc1ccc(NC(=O)Nc2cccc(CNc3ncnc4cc(OC)c(OC)cc34)c2)cc1`, the pIC50 is < 4.30 with HepG2, 4.91 in [1] and 4.61 with A549 [2].
Taken in the same sequence, the figures for `COc1cc2ncnc(NCc3cccc(NC(=O)Nc4cccc(C(F)(F)F)c4)c3)c2cc1OC` were 4.47, < 4.30 and 4.45.
For `COC(=O)c1ccccc1NC(=O)Nc1cccc(CNc2ncnc3cc(OC)c(OC)cc23)c1`, the negative-log IC50 (pIC50) in the assay on HepG2 is 4.50; in assay [1], 5.05; in the assay on A549 [2], 4.53.
Taken in the same sequence, the figures for `COC(=O)c1ccccc1NC(=O)Nc1cccc(CNc2ncnc3ccccc23)c1` were < 4.30, 5.02 and 4.53.
In the case of `COc1cc2ncnc(NCc3cccc(NC(=O)Nc4ccc(C)cc4)c3)c2cc1OC`, the pIC50 with HepG2 is < 4.30; in assay [1], 4.47; in the assay on A549 [2], 4.89.
Taken in the same sequence, the figures for `COc1ccccc1NC(=O)Nc1cccc(CNc2ncnc3ccccc23)c1` were 4.76, 4.41 and 4.51.
As to `Cc1ccccc1NC(=O)Nc1cccc(CNc2ncnc3ccccc23)c1`, the negative logarithm of the IC50 (pIC50) in the assay on HepG2 is < 4.30; in assay [1] it was < 4.30; in the assay on A549 [2], 4.40.
On to `COc1cc2ncnc(NCc3cccc(NC(=O)Nc4ccccc4)c3)c2cc1OC`, for which the figures for the negative-log IC50 (pIC50) (in the assay with HepG2; in [1]; in the assay on A549 [2]) were 4.71, 5.00 and 4.77, respectively.
The matching figures for `COc1cc2ncnc(NCc3cccc(NC(=O)Nc4ccc([N+](=O)[O-])cc4)c3)c2cc1OC`: 4.72, 5.09 and < 4.30.
Consider `O=C(Nc1cccc(CNc2ncnc3ccccc23)c1)Nc1ccccc1F`, for which the figures for the pIC50 (with HepG2; in [1]; in the assay on A549 [2]) were 4.76, 4.48 and 4.58, respectively.
Taken in the same sequence, the figures for `Cc1ccc(NC(=O)Nc2cccc(CNc3ncnc4ccccc34)c2)cc1` were < 4.30, 4.51 and 4.60.
As to `COc1ccc(NC(=O)Nc2cccc(CNc3ncnc4ccccc34)c2)cc1`, the results for the pIC50 (in the assay with HepG2; in assay [1]; in the assay on A549 [2]) were < 4.30, 4.56 and 4.53, respectively.
Take `COc1ccccc1NC(=O)Nc1cccc(CNc2ncnc3cc(OC)c(OC)cc23)c1`: the negative logarithm of the IC50 (pIC50) in the assay with HepG2 is 4.57; in assay [1], 5.11; in the assay on A549 [2] it was 4.82.
The matching figures for `O=C(Nc1ccc(Cl)cc1)Nc1cccc(CNc2ncnc3ccccc23)c1`: < 4.30, 4.58 and < 4.30.
As to `O=C(Nc1cccc(CNc2ncnc3ccccc23)c1)Nc1cccc(C(F)(F)F)c1`, the pIC50 with HepG2 was 4.40; in assay [1] it was < 4.30; with A549 [2], 4.35.
Taken in the same sequence, the figures for `COc1cc2ncnc(NCc3cccc(NC(=O)Nc4ccc(Cl)cc4)c3)c2cc1OC` were < 4.30, 4.35 and 4.52.
On to `COc1cc2ncnc(Nc3ccc(F)c(Cl)c3)c2cc1OCCCN1CCOCC1` [GEFITINIB], for which the viability at 10 µM in the assay with A549 [3] was 88%; with A549 [7], 83.1%. In addition, the Activity with A549 [4] was determined as 5.81%; in the assay with A549 [5] it was 5.27%; with A549 [6], 0.94%; in the assay with A549 [8], 3.61%; in the assay on A549 [9], 1%; with A549 [10], 4.92%. Further, the Activity in the assay on A549 [11] amounted to 11%; in the assay with A549 [12] it was 92.35%; with A549 [13], 4.04%. The result in the assay with A549 [14], in the assay with A549 [15] and in the assay on A549 [16] was Active.
Turning to `COc1cc2ncnc(NCc3cccc(NC(=O)Nc4cccc(Cl)c4)c3)c2cc1OC`, the results for the negative logarithm of the IC50 (pIC50) (with HepG2; in assay [1]; in the assay with A549 [2]) were 4.45, < 4.30 and 4.64, respectively.
The matching figures for `COc1cc2ncnc(NCc3cccc(NC(=O)Nc4ccccc4F)c3)c2cc1OC`: 4.60, 4.99 and 4.62.
As to `CNC(=O)c1cc(Oc2ccc(NC(=O)Nc3ccc(Cl)c(C(F)(F)F)c3)cc2)ccn1` [SORAFENIB], the negative logarithm of the IC50 (pIC50) in the assay with HepG2 was 5.04; in assay [1], 5.10; in the assay on A549 [2] it was 4.87. The viability at 10 µM with A549 [3] is 83.7%; with A549 [7], 72.8%. Moreover, the Activity worked out at 9.33% in the assay with A549 [4]; 6.23% with A549 [5]; 0.7% with A549 [6]; 5.79% in the assay on A549 [8]; 0.9% in the assay with A549 [9]; 6.38% in the assay with A549 [10]. Also, the Activity in the assay with A549 [11] is recorded as 19.9%; with A549 [12], 90.27%; in the assay with A549 [13] it was 3.93%. The result in the assay on A549 [14], in the assay with A549 [17], in the assay with A549 [18], in the assay with A549 [15] and with A549 [16] was Active. In addition, in assay [19], the inhibition result was “Active”.
In the case of `Cc1cccc(NC(=O)Nc2cccc(CNc3ncnc4ccccc34)c2)c1`, the figures for the pIC50 (in the assay on HepG2; in [1]; with A549 [2]) were < 4.30, 4.52 and 4.52, respectively.
Regarding `O=C(Nc1ccc(F)cc1)Nc1cccc(CNc2ncnc3ccccc23)c1`, the pIC50 in the assay with HepG2 is 4.38; in assay [1] it was 4.35; in the assay with A549 [2], 4.68.
`CC(C)(C)c1ccc(NC(=O)Nc2cccc(CNc3ncnc4ccccc34)c2)cc1`: the pIC50 is 4.77 with HepG2, 5.13 in assay [1] and 4.75 with A549 [2].
